Experimental data published in PubChem BioAssay (NCI).
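All cell lines were grown in 96-well plates and treated with compound for 48 hours. GI50 is the concentration that inhibits growth by half. TGI denotes the concentration required for complete inhibition of growth.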

Tests used:
Test in all cases: growth of human tumour cells (NCI), 48 h
[1] = tested on: BT-549 breast
[2] = tested on: LOX IMVI melanoma
[3] = tested on: NCI-H226 lung
[4] = tested on: UACC-62 melanoma
[5] = tested on: MCF7 breast
[6] = tested on: SK-MEL-28 melanoma
[7] = tested on: HCT-15 colon
[8] = tested on: CAKI-1 renal
[9] = tested on: 786-0 renal
[10] = tested on: U251 CNS
[11] = tested on: OVCAR-5 ovarian
[12] = tested on: MDA-MB-231 breast
[13] = tested on: OVCAR-8 ovarian
[14] = tested on: SK-MEL-2 melanoma
[15] = tested on: DU-145 prostate
[16] = tested on: SF-268 CNS
[17] = tested on: RPMI-8226 leukemia
[18] = tested on: TK-10 renal
[19] = tested on: MDA-MB-435
[20] = tested on: SF-539 CNS
[21] = tested on: HL-60(TB) leukemia
[22] = tested on: UO-31 renal
[23] = tested on: UACC-257 melanoma
[24] = tested on: ACHN renal
[25] = tested on: HOP-92 NSCLC
[26] = tested on: SR leukemia
[27] = tested on: MALME-3M melanoma
[28] = tested on: A498 renal
[29] = tested on: SW-620 colon

CCOC(=O)Cn1c(-c2nonc2NC(=O)c2ccccc2F)nc2ccccc21
GI50 [1]: 5.91 µM
TGI [1]: > 93.7 µM
GI50 [2]: 0.309 µM
TGI [2]: > 100 µM
GI50 [3]: 19.5 µM
TGI [3]: > 100 µM
GI50 [4]: 5.86 µM
TGI [4]: > 100 µM
GI50 [5]: 1.64 µM
TGI [5]: > 100 µM
GI50 [6]: 17.9 µM
TGI [6]: > 100 µM
GI50 [7]: 0.109 µM
TGI [7]: > 100 µM
GI50 [8]: 2.33 µM
TGI [8]: > 100 µM
GI50 [9]: 2.58 µM
TGI [9]: > 100 µM
GI50 [10]: 0.41 µM
TGI [10]: 25.8 µM
GI50 [11]: 26.3 µM
TGI [11]: > 100 µM
GI50 [12]: 28.7 µM
TGI [12]: > 100 µM
GI50 [13]: 0.739 µM
TGI [13]: > 60.1 µM
GI50 [14]: 41.3 µM
TGI [14]: > 85.5 µM
GI50 [15]: 4.96 µM
TGI [15]: > 100 µM
GI50 [16]: 1.89 µM
TGI [16]: > 100 µM
GI50 [17]: 7.5 µM
TGI [17]: > 100 µM
GI50 [18]: 19.2 µM
TGI [18]: > 82.7 µM
GI50 [19]: 2.25 µM
TGI [19]: > 100 µM
GI50 [20]: 1.67 µM
TGI [20]: > 100 µM
TGI [21]: > 100 µM
GI50 [22]: 28.1 µM
TGI [22]: > 100 µM
GI50 [23]: 8.78 µM
TGI [23]: > 100 µM
GI50 [24]: 5.05 µM
TGI [24]: > 100 µM
GI50 [25]: 22.1 µM
TGI [25]: 67.9 µM
GI50 [26]: 0.411 µM
TGI [26]: > 100 µM
GI50 [27]: 26.6 µM
TGI [27]: > 87 µM
GI50 [28]: 68 µM
TGI [28]: > 100 µM
GI50 [29]: 1.4 µM
TGI [29]: > 100 µM
